Data set [1] deals with CD98. In words: Nutrient transporter (CD98) down-regulation. It is filed as cell-based. Conditions: for activity in downregulation tests: compared to hydroxy pyrrolidine ketone progenitors 20, 21, 23 and 24.
Data set [2] has as its system vacuolation. The data set can be described thus: Vacuolation score. Format: cell-based. Conditions: for activity in vacuolation tests: compared to hydroxy pyrrolidine ketone progenitors 20, 21, 23 and 24.
In data set [3] the test system is cancer cells. The data set can be described thus: Cytotoxicity (IC50). Format: cell-based.
The nature of data set [4]: Racemization/epimerization, deuterium incorporation and cyclization in protic solvents. Format: physicochemical. To be noted: for time to complete incorporation of deuterium at C-2: D2O, room temperature; for racemization / epimerization after N-Boc deprotection: dissolved in protic solvents such as water and MeOH, gives 1:1 mixture of enantiomers or epimers. The protocol: In the presence of D2O at room temperature, deuterium was incorporated at C-2 confirming a fast enolization followed by β-elimination and ring closure. […] The incorporation of deuterium is complete in 30 min at pH=10, and in 3 hours at pH=7.
It was therefore decided to further investigate this new structural analog and we prepared the bicyclic enantiopure pyrrolizidine 17 bearing the aryloctyl appendage on C-3, in analogy with our lead compound 3 as well as the monocyclic variant 18, to check the effect of the substituent position and the nature of the azacycles (FIG. 7).

Setting [5] is: at concentration near IC50 / where it kills 50% of cells.

pIC50: −log10 of the molar value. Structures can show the parent of a compound that is named as a salt. Where two headings read alike, the source gives them in different places.

`CCCCCCCCc1ccc(C(=O)[C@@H]2CCCN2)cc1.Cl` [Compound 19, (S)-2-(4-Octylbenzoyl)pyrrolidin-1-ium chloride]: the inhibition at 2.5 µM in data set [1] (2.5 μM) was -21%. Also, the inhibition at 10 µM in data set [1] (10 μM) is -4%. Moreover, the inhibition at 40 µM in data set [1] (40 μM) came out at 33%. Also, the Vacuolation score in data set [2] (2.5 μM) and in data set [2] (10 μM) was 0 each time.

Turning to `CCCCCCCCc1ccc([C@@H]2CCC3C[C@H](CO)CN32)cc1.Cl` (stereo partly drawn) [Compound 14, ((2S,5S)-5-(4-Octylphenyl)hexahydro-1H-pyrrolizin-2-yl)methanol hydrochloride], the pIC50 in data set [3] and in data set [3] (hydrochloride) was 4.91 each time. Also, the inhibition at 2.5 µM in data set [1] (2.5 μM) amounted to 0%. Moreover, in data set [1] (10 μM), the inhibition at 10 µM was determined as 32%. Further, in data set [1] (40 μM), the inhibition at 40 µM worked out at 68%. The Vacuolation score in data set [2] (2.5 μM) and in data set [2] (10 μM) was 0 in each case.

The compound `CCCCCCCCc1ccc(C(=O)CC[C@H]2C[C@H](CO)CN2)cc1.Cl` [Compound 13, 3-(2S,4S)-4-(Hydroxymethyl)pyrrolidin-2-yl)-1-(4-octylphenyl)propan-1-one hydrochloride] gave a pIC50 in data set [3] of 5.40.

In data set [3], `CCCCCCCCc1ccc(CC(O)[C@H]2C[C@H](O)CN2)cc1.Cl` (stereo partly drawn) [Compound 26, (2R,4S)-4-Hydroxy-2-(1-hydroxy-2-(4-octylphenyl)ethyl)pyrrolidin-1-ium chloride] gave a pIC50 of 5.74. Besides, the inhibition at 2.5 µM in data set [1] (2.5 μM) turned out to be 9%. In addition, the inhibition at 10 µM in data set [1] (10 μM) turned out to be 62%. Moreover, in data set [1] (setting [5]), the nutrient transporter down-regulation result was “does not down-regulate nutrient transporter proteins”. In addition, in data set [2] (2.5 μM), the Vacuolation score is listed as 0. Further, in data set [2] (setting [5]), the vacuolation entry is reported as “does not down-regulate nutrient transporter proteins or vacuolate”.

On to `CCCCCCCCc1ccc(C(=O)[C@H]2C[C@H](O)CN2)cc1.Cl` [Compound 21, (2R,4S)-4-Hydroxy-2-(4-octylbenzoyl)pyrrolidin-1-ium chloride], for which, in data set [3], the pIC50 is 4.82. Further, in data set [1] (2.5 μM), the inhibition at 2.5 µM worked out at 12%. The inhibition at 10 µM in data set [1] (10 μM) was found to be 51%. The inhibition at 40 µM in data set [1] (40 μM) was 41%. Further, the Vacuolation score in data set [2] (2.5 μM) is reported as 0. For the same compound, the “vacuolation (in words)” value in data set [2] (10 μM) is “reached maximum vacuolation”.

The compound `CCCCCCCCc1ccc(C(=O)[C@H]2C[C@H](CO)CN2)cc1.Cl` [Compound 22, ((2R,4S)-4-(Hydroxymethyl)pyrrolidin-2-yl)(4-octylphenyl)methanone hydrochloride] gave a pIC50 in data set [3] of 4.71. Further, the inhibition at 2.5 µM in data set [1] (2.5 μM) was determined as 0%. Besides, the inhibition at 10 µM in data set [1] (10 μM) was determined as 19%. In addition, the inhibition at 40 µM in data set [1] (40 μM) is 61%. The Vacuolation score in data set [2] (2.5 μM) and in data set [2] (10 μM) was 0 each time.

With `CCCCCCCCc1ccc(CC[C@@H]2CCCN2)cc1` [Compound 9, (R)-2-(4-Octylphenethyl)pyrrolidine hydrochloride], the pIC50 in data set [3] is 5.55. In data set [1] (2.5 μM), the inhibition at 2.5 µM worked out at 41%. Besides, the inhibition at 10 µM in data set [1] (10 μM) was 63%.

With `CCCCCCCCc1ccc(C(=O)[C@@H]2C[C@@H](OP(=O)(O)O)CN2)cc1.Cl` [Compound 30, (2S,4R)-2-(4-Octylbenzoyl)-4-(phosphonooxy)pyrrolidin-1-ium chloride], the pIC50 in data set [3] was 4.89. Besides, the “% CD98 down-regulation” value in data set [1] (10 μM) is listed as −9%; in data set [1] (40 μM), −0%. Further, the “activity in downregulation tests” value in data set [1] was “totally inactive”. Further, the Vacuolation score in data set [2] (2.5 μM), in data set [2] (10 μM) and in data set [2] (40 μM) was 0 each time. In addition, the “activity in vacuolation tests” value in data set [2] was “totally inactive”.

Regarding `CCCCCCCCc1ccc(C(=O)[C@@H]2C[C@@H](OP(=O)(O)O)CN2)cc1.Cl` [Compound 29, (2S,4R)-2-(4-Octylbenzoyl)-4-(phosphonooxy)pyrrolidin-1-ium chloride], the pIC50 in data set [3] was 4.89. The figures for the “% CD98 down-regulation” value in data set [1] (10 μM) and in data set [1] (40 μM) were 3% and −8%, respectively. The “activity in downregulation tests” value in data set [1] is “totally inactive”. In addition, the Vacuolation score in data set [2] (2.5 μM), in data set [2] (10 μM) and in data set [2] (40 μM) was 0 each time. In addition, the “activity in vacuolation tests” value in data set [2] is “totally inactive”.

`CCCCCCCCc1ccc(CC(=O)[C@H]2C[C@H](OP(=O)(O)O)CN2)cc1.Cl` [Compound 32, (2R,4S)-2-(2-(4-Octylphenyl)acetyl)-4-(phosphonooxy)pyrrolidin-1-ium chloride]: the pIC50 in data set [3] was 4.60. In addition, the inhibition at 10 µM in data set [1] (10 μM) was 5%. Moreover, the inhibition at 40 µM in data set [1] (40 μM) is 8%. Also, the “activity in downregulation tests” value in data set [1] was “totally inactive”. The Vacuolation score in data set [2] (10 μM) and in data set [2] (40 μM) was 0 throughout. For the same compound, the “activity in vacuolation tests” value in data set [2] is “totally inactive”.

Consider `CCCCCCCCc1ccc(C(=O)CC[C@@H]2C[C@@H](O)CN2)cc1` [Compound 15, (2R,4R)-4-Hydroxy-2-(3-(4-octylphenyl)-3-oxopropyl)pyrrolidin-1-ium chloride], for which the pIC50 in data set [3] is 5.68. In addition, in data set [1] (2.5 μM), the inhibition at 2.5 µM is 15%. The inhibition at 10 µM in data set [1] (10 μM) is 52%.

With `CCCCCCCCc1ccc(CC(=O)[C@@H]2C[C@@H](O)CN2)cc1.Cl` [Compound 23, (2S,4R)-4-Hydroxy-2-(2-(4-octylphenyl)acetyl)pyrrolidin-1-ium chloride], in data set [3], the pIC50 was 4.73. The inhibition at 2.5 µM in data set [1] (2.5 μM) came out at 13%. The inhibition at 10 µM in data set [1] (10 μM) turned out to be 23%. For the same compound, the inhibition at 40 µM in data set [1] (40 μM) was determined as 59%. For the same compound, the Vacuolation score in data set [2] (2.5 μM) and in data set [2] (10 μM) was 0 throughout.

Consider `CCCCCCCCc1ccc(CC(=O)[C@H]2C[C@H](O)CN2)cc1.Cl` [Compound 24, (2R,4S)-4-Hydroxy-2-(2-(4-octylphenyl)acetyl)pyrrolidin-1-ium chloride], for which the pIC50 in data set [3] is 4.77. For the same compound, in data set [1] (2.5 μM), the inhibition at 2.5 µM worked out at 11%. In data set [1] (10 μM), the inhibition at 10 µM is 16%. Also, the inhibition at 40 µM in data set [1] (40 μM) is 54%. Further, the Vacuolation score in data set [2] (2.5 μM) and in data set [2] (10 μM) was 0 in each case.

`CCCCCCCCc1ccc(C(=O)C[C@H]2C[C@H](CO)CN2)cc1.Cl` (mixture of isomers) [Compound 12, 2-((2R,4S)-4-(Hydroxymethyl)pyrrolidin-2-yl)-1-(4-octylphenyl)ethan-1-one hydrochloride]: in data set [3], the pIC50 is 5.70. Moreover, the inhibition at 2.5 µM in data set [1] (2.5 μM) came out at 44%. The inhibition at 10 µM in data set [1] (10 μM) amounted to 50%. Moreover, the “time to complete incorporation of deuterium at C-2” value in data set [4] (pH=7) was 3 h; in data set [4] (pH=10), 0.5 h. The “racemization / epimerization after N-Boc deprotection” value in data set [4] is “prone to racemization and epimerization”. For the same compound, the stability to epimerization result in data set [4] (pH≤3 in H2O) is recorded as “stable only in very acidic conditions”.

For `CCCCCCCCc1ccc(C(=O)CC[C@H]2C[C@H](CO)CN2)cc1.Cl` [Compound 13], the “% CD98 down-regulation” value in data set [1] (2.5 μM) was found to be 8%; in data set [1] (10 μM), 46%. This compound also came in with a Vacuolation score in data set [2] (2.5 μM) of 0.

Regarding `CCCCCCCCc1ccc([C@H]2CCN[C@@H]2CO)cc1.Cl` [Compound 3, reference compound], in data set [3], the pIC50 was 5.68. The “% CD98 down-regulation” value in data set [1] (2.5 μM) came to 42%; in data set [1] (10 μM), 66%.

In data set [3], `CCCCCCCCc1ccc(C[C@@H]2C[C@@H](O)CN2)cc1` [Compound 16, (3R,5R)-5-(4-Octylbenzyl)pyrrolidin-3-ol] showed a pIC50 of 5.66. Also, in data set [1] (2.5 μM), the inhibition at 2.5 µM was 40%. Also, the inhibition at 10 µM in data set [1] (10 μM) came out at 63%.

With `CCCCCCCCc1ccc(C(C[C@@H]2CCCN2)OC)cc1.Cl` (single isomer, unassigned) [Compound 10, hydrochloride], in data set [3], the pIC50 is 5.52. In addition, in data set [1] (2.5 μM), the inhibition at 2.5 µM is 15%. The inhibition at 10 µM in data set [1] (10 μM) turned out to be 58%.

With `CCCCCCCCc1ccc(C(=O)C[C@@H]2CCCN2)cc1.Cl` [Compound 8, (S)-1-(4-Octylphenyl)-2-(pyrrolidin-2-yl)ethan-1-one hydrochloride], in data set [3], the pIC50 was 5.60. The inhibition at 2.5 µM in data set [1] (2.5 μM) is 78%. Further, in data set [1] (10 μM), the inhibition at 10 µM turned out to be 57%. The “racemization / epimerization after N-Boc deprotection” value in data set [4] was “prone to racemization and epimerization”.

Take `CCCCCCCCc1ccc(CC(O)[C@@H]2C[C@@H](O)CN2)cc1` (stereo partly drawn) [Compound 25, (2S,4R)-4-Hydroxy-2-(1-hydroxy-2-(4-octylphenyl)ethyl)pyrrolidin-1-ium chloride]: the negative-log IC50 (pIC50) in data set [3] was 5.52. For the same compound, the inhibition at 2.5 µM in data set [1] (2.5 μM) was determined as 19%. Moreover, the inhibition at 10 µM in data set [1] (10 μM) was 62%.

In data set [2] (2.5 μM), `CCCCCCCCc1ccc(C(C[C@@H]2CCCN2)OC)cc1.Cl` (single isomer, unassigned) [Compound 10, (2S)-2-(2-Methoxy-2-(4-octylphenyl)ethyl)pyrrolidine hydrochloride] displayed a Vacuolation score of 0.

On to `CCCCCCCCc1ccc(C(=O)[C@@H]2C[C@@H](O)CN2)cc1.Cl` [Compound 20, (2S,4R)-4-Hydroxy-2-(4-octylbenzoyl)pyrrolidin-1-ium chloride], for which, in data set [3], the negative logarithm of the IC50 (pIC50) was 4.55. Further, the inhibition at 2.5 µM in data set [1] (2.5 μM) is 2%. The inhibition at 10 µM in data set [1] (10 μM) worked out at 9%. For the same compound, in data set [1] (40 μM), the inhibition at 40 µM was found to be 48%. Moreover, the Vacuolation score in data set [2] (2.5 μM) was determined as 0.

`CCCCCCCCc1ccc(CC(=O)[C@@H]2C[C@@H](OP(=O)(O)O)CN2)cc1.Cl` [Compound 31, (2S,4R)-2-(2-(4-Octylphenyl)acetyl)-4-(phosphonooxy)pyrrolidin-1-ium chloride]: the pIC50 in data set [3] was 4.60. Besides, the inhibition at 10 µM in data set [1] (10 μM) was determined as 3%. For the same compound, the inhibition at 40 µM in data set [1] (40 μM) was found to be 0%. Moreover, the “activity in downregulation tests” value in data set [1] is “totally inactive”. The Vacuolation score in data set [2] (10 μM) and in data set [2] (40 μM) was 0 in each case. Also, the “activity in vacuolation tests” value in data set [2] is “totally inactive”.
